In experiment [1] the test system is N-acetylhexosamine-dehydrogenase (N-AHDH). Description: Influence of inhibitor on enzyme activity. It is filed as biochemical, Pseudomonas sp. No. 53. The method, then: In the table presented above, enzyme activity was measured in a solution containing 2 mM of metallic ion or inhibitor. There is known no substance particularly contributing to activation and stabilization.
(§1) To 1.8 ml of 0.1 M glycine-sodium hydroxide buffer (pH 9.5) is added 0.1 ml of 60 mM […] solution. After keeping the mixture at 37° C. for 10 minutes, 10 microliters of enzyme solution is added, and subsequently 0.1 ml of 0.3M N-acetylglucosamine solution is mixed to start the reaction. The reaction mixture is immediately transferred into an absorbance measurement cell (1 cm path) kept at 37° C., and absorbance is measured at intervals of one minute at a wavelength of 340 nm over a period of 5 minutes or, if desired, over a longer period of time. A quantity of enzyme capable of forming one micromole of NADH per one minute is taken as "one unit".

For experiment [2] the test system is unchanged. Description: Action and substrate specificity of the enzyme. In kind it is biochemical, Pseudomonas sp. No. 53. The settings on record: in the presence of NAD+. Here is the method: As shown in the following reaction scheme, this enzyme oxidizes N-acetylglucosamine or N-acetylgalactosamine to N-acetylglucosaminolactoneor N-acetylgalactosaminolactone in the presence of NAD^+ and, at the same time, reduces the NAD^+ to NADH. [drawing 1]
as §1

[3] abbreviates: solution containing 2 mM of metallic ion or inhibitor.

Where two headings read alike, the source gives them in different places.

On to `Oc1cccc2cccnc12` [8-Hydroxyquinoline], for which, in experiment [1], the Residual activity was 110.
For `[Ca+2].[Cl-].[Cl-]` [CaCl2], the Residual activity in experiment [1] (setting [3]) came to 95%.
Regarding `O=S(=O)([O-])[O-].[Cd+2]` [CdSO4], in experiment [1] (setting [3]), the Residual activity came to 92%.
Same read-out and setting: with `O=S(=O)([O-])[O-].[Cu+2]` [CuSO4] the figure was 94%; with `O=C(O)CN(CCN(CC(=O)O)CC(=O)O)CC(=O)O` [EDTA], 101%.
On to `[Cl][Hg][Cl]` [HgCl2], for which, in experiment [1] (setting [3]), the Residual activity is 35%.
Same read-out and setting: for `NC(=O)CI` [Iodoacetamide] the value was 104%; for `O=S(=O)([O-])[O-].[Mn+2]` [MnSO4], 96%.
Regarding `CC(=O)N[C@H]1[C@H](O[C@H]2[C@H](O)[C@@H](NC(C)=O)C(O)O[C@@H]2CO)O[C@H](CO)[C@@H](O)[C@@H]1O` (stereo partly shown) [N,N'-diacetylchitobiose], the figures for the “Action of the enzyme upon the sugar (substrate specificity)” value in experiment [2] and in experiment [2] (listed as acetylchitobiose) were “no action at all or hardly exercises an action” and “does not act”, respectively.
With `CC(=O)N[C@H]1C(O)O[C@H](CO)[C@H](O)[C@@H]1O` (stereo partly shown) [N-acetylgalactosamine], in experiment [2], the “Action of the enzyme upon the sugar (substrate specificity)” value is recorded as “oxidizes”.
Same read-out and setting: for `CC(=O)N[C@H]1C(O)O[C@H](CO)[C@@H](O)[C@@H]1O` (stereo partly shown) [N-acetylglucosamine] the value was “oxidizes”.
On the same count and under the same terms, with `CC(=O)N[C@@H]1C(O)O[C@H](CO)[C@@H](O)[C@@H]1O` (stereo partly shown) [N-acetylmannosamine] the entry was “only a slight action”.
`[N-]=[N+]=[N-].[Na+]` [NaN3]: the Residual activity in experiment [1] (setting [3]) turned out to be 89%.
The same measure, in the same setting: for `O=C(O)c1cc[c]([Hg][Cl])cc1` [PCMB] the value was 97%; for `CCCCCCCCCCCCOS(=O)(=O)O` [SDS], 62%; for `O=S(=O)([O-])[O-].[Zn+2]` [ZnSO4], 95%.
For `c1cnc2c(c1)ccc1cccnc12` [o-Phenanthroline], the Residual activity in experiment [1] (setting [3]) is listed as 104%.
The same measure, in the same setting: with `c1ccc(-c2ccccn2)nc1` [α, α'-Dipyridyl] the figure was 107%.

Source of the values: patent publication US5068190A, “N-acetylhexosamine-dehydrogenase, process for producing same, method for the quantitative analysis of N-acetylglucosamine or N-acetylgalactosamine using same and kit for use in the quantitative analysis” (Noda Institute for Scientific Research, priority 1988, dated 1991).
